These molecules were tested against DYRK1A (Homo sapiens (Human), UniProt Q13627) (assay: DYRK1A Inhibition Assay). Conditions: Compounds of Formula (I); DYRK1A 1 nM, ATP 20 μM, Ser/Thr 18 peptide 2 μM, 90 minutes; read-out: DYRK1 IC50.
Format: biochemical
Protocol: DYRK1A—Invitrogen #PV4105
• Ser/Thr 18 peptide—Invitrogen #PR8227U • Phos-Ser/Thr 18 peptide—Invitrogen #PR8229U • Assay plate—PerkinElmer #6007279 • ATP—Sigma #A7699-5G • Development reagent A—Invitrogen #PR5194B • Development buffer—Invitrogen #PR4876B Compound preparation • 1. Test compounds were diluted to 1 mM in DMSO • 2. Stock was further diluted 3-fold using Echo platform • 3. 100 nL of DMSO into Columns 1 and 24 and 100 nL of compounds dilutions to Columns 2-23 in a plate.
• 1. Add 5 μL enzyme & substrate mixture to each well in Column 2-23 and A24-H24 wells of the 384-well assay plate; • 2. Add 5 μL 0% Phosphorylation control to A1-H1 and I24-P24 wells of the assay plate; • 3. Add 5 μL 100% Phosphorylation control to I1-P1 wells of the assay plate; • 4. Spin the assay plate (1000 rpm, 1 minute @23° C.); • 5. Incubate enzyme with compounds for 15 minutes at 23° C.; • 6. Add 5 μL ATP solution to each well of the assay plate; • 7. Spin the plate (1000 rpm, 1 minute @23° C.); • 8. Incubate the assay plate for 90 minutes at 23° C.; • 9. Add 10 μL Development reagent A to each well of the assay plate; • 10. Centrifuge the plate at 1000 rpm about 15 seconds and seal a film over assay plate. Incubate the assay plate for 30 minutes at 23° C. • 11. Read assay plates on Envision (see Tables A-D).
Final Compound Concentrations
• Assay buffer: 50 mM Hepes pH7.5, 10 mM MgCl2, 1 mM EDTA, 0.01% Brij-35 • DYRK1A: 1 nM • ATP: 20 μM • Ser/Thr 18 peptide: 2 μM • Reaction time: 90 minutes
With `Cn1cc(-c2ccc3cnc4[nH]cc(-c5ccc(F)cc5)c4c3c2)cn1` [Compound 2, 1-(4-fluorophenyl)-8-(1-methyl-1H-pyrazol-4-yl)-3H-pyrrolo[2,3-c]isoquinoline] the IC50 was 10 to 100 nM. In the case of `Fc1ccc(-c2c[nH]c3ncc4ccc(-c5cn[nH]c5)cc4c23)cc1` [Compound 3, 1-(4-fluorophenyl)-8-(1H-pyrazol-4-yl)-3H-pyrrolo[2,3-c]isoquinoline], the IC50 is reported as 10 to 100 nM. Molecule `OCc1ccc2c(cnc3[nH]cc(-c4ccc(F)cc4)c32)c1` [Compound 5] has an IC50 of 10 to 100 nM. With `Cn1cc(-c2ccc3cnc4[nH]ncc4c3c2)cn1` [Compound 7, 8-(1-methyl-1H-pyrazol-4-yl)-3H-pyrazolo[3,4-c]isoquinoline] the IC50 was 10 to 100 nM. In the case of `CN1CCN(C(=O)c2c[nH]c3ncc4ccc(-c5cccnc5)cc4c23)CC1` [Compound 10, (4-methylpiperazin-1-yl)(8-(pyridin-3-yl)-3H-pyrrolo[2,3-c]isoquinolin-1-yl)methanone], the IC50 is reported as 100 to 1000 nM. Work on `O=c1[nH]c2ncc3ccc(-c4cccnc4)cc3c2n1Cc1cccnc1` [Compound 11, 8-(pyridin-3-yl)-1-(pyridin-3-ylmethyl)-1,3-dihydro-2H-imidazo[4,5-c]isoquinolin-2-one] yielded an IC50 of 100 to 1000 nM. For `Cn1cc(-c2ccc3cnc4[nH]cc(C(=O)N5CCNCC5)c4c3c2)cn1` [Compound 12, (8-(1-methyl-1H-pyrazol-4-yl)-3H-pyrrolo[2,3-c]isoquinolin-1-yl)(piperazin-1-yl)methanone], the IC50 was 10 to 100 nM. `Cn1cc(-c2ccc3cnc4[nH]c(=O)n(C5CC(O)C5)c4c3c2)cn1` (stereo not shown) [Compound 21, 1-(3-hydroxycyclobutyl)-8-(1-methyl-1H-pyrazol-4-yl)-1,3-dihydro-2H-imidazo[4,5-c]isoquinolin-2-one] gave an IC50 of 10 to 100 nM. With `COC1CC(n2c(=O)[nH]c3ncc4ccc(-c5cnn(C)c5)cc4c32)C1` (stereo not shown) [Compound 22, 1-(3-methoxycyclobutyl)-8-(1-methyl-1H-pyrazol-4-yl)-1,3-dihydro-2H-imidazo[4,5-c]isoquinolin-2-one] the IC50 was 100 to 1000 nM. In the case of `CNC(=O)C1CCC(c2c[nH]c3ncc4ccc(-c5cnn(C)c5)cc4c23)CC1` (stereo not shown) [Compound 27], the IC50 is reported as at most 10 nM. Work on `Cn1cc(-c2ccc3cnc4[nH]cc(C5CCC(C(=O)N6CCNCC6)CC5)c4c3c2)cn1` (stereo not shown) [Compound 28, (4-(8-(1-methyl-1H-pyrazol-4-yl)-3H-pyrrolo[2,3-c]isoquinolin-1-yl)cyclohexyl)(piperazin-1-yl)methanone] yielded an IC50 of at most 10 nM. Work on `Cn1cc(-c2ccc3cnc4[nH]cc(C5CCN(S(C)(=O)=O)CC5)c4c3c2)cn1` [Compound 29, 8-(1-methyl-1H-pyrazol-4-yl)-1-(1-(methylsulfonyl)piperidin-4-yl)-3H-pyrrolo[2,3-c]isoquinoline] yielded an IC50 of at most 10 nM. Work on `Cn1c(=O)[nH]c2ncc(-c3ccc4cnsc4c3)cc21` [Compound 30, 6-(benzo[d]isothiazol-6-yl)-1-methyl-1,3-dihydro-2H-imidazo[4,5-b]pyridin-2-one] yielded an IC50 of 100 to 1000 nM. With `O=c1[nH]c2ncc(-c3ccc4cnsc4c3)cc2n1C1CCC1` [Compound 31, 6-(benzo[d]isothiazol-6-yl)-1-cyclobutyl-1,3-dihydro-2H-imidazo[4,5-b]pyridin-2-one] the IC50 was 100 to 1000 nM. With `O=C(O)[C@H]1C[C@@H](c2c[nH]c3ncc4ccccc4c32)C1` [Compound 32, (1s,3s)-3-(3H-pyrrolo[2,3-c]isoquinolin-1-yl)cyclobutane-1-carboxylic acid] the IC50 was 100 to 1000 nM. With `O=C(O)[C@H]1C[C@H](c2c[nH]c3ncc4ccccc4c32)C1` [Compound 33, (1r,3r)-3-(3H-pyrrolo[2,3-c]isoquinolin-1-yl)cyclobutane-1-carboxylic acid] the IC50 was 100 to 1000 nM. For `O=C(O)C1CC(c2c[nH]c3ncc4ncccc4c23)C1` (stereo not shown) [Compound 34, 3-(3H-pyrrolo[3,2-f][1,7]naphthyridin-1-yl)cyclobutane-1-carboxylic acid], the IC50 was 100 to 1000 nM. `O=C(O)C1CC(c2c[nH]c3ncc4ccncc4c23)C1` (stereo not shown) [Compound 35, 3-(7H-pyrrolo[2,3-c][2,6]naphthyridin-9-yl)cyclobutane-1-carboxylic acid] showed an IC50 of 100 to 1000 nM. In the case of `O=C(O)[C@H]1C[C@@H](c2c[nH]c3ncc4cccnc4c32)C1` [Compound 36, (1s,3s)-3-(7H-pyrrolo[2,3-h][1,6]naphthyridin-9-yl)cyclobutane-1-carboxylic acid], the IC50 is reported as 100 to 1000 nM. With `O=C(O)[C@H]1C[C@H](c2c[nH]c3ncc4cccnc4c32)C1` [Compound 37, (1r,3r)-3-(7H-pyrrolo[2,3-h][1,6]naphthyridin-9-yl)cyclobutane-1-carboxylic acid] the IC50 was 10 to 100 nM. `Cn1cc(-c2ccc3cnc4c(c(C5CCC5)cn4C)c3c2)cn1` [Compound 38, 1-cyclobutyl-3-methyl-8-(1-methyl-1H-pyrazol-4-yl)-3H-pyrrolo[2,3-c]isoquinoline] showed an IC50 of 10 to 100 nM. In the case of `Cn1cc(-c2ccc3cnc4[nH]c(C5CCNCC5)cc4c3c2)cn1` [Compound 39, 8-(1-methyl-1H-pyrazol-4-yl)-2-(piperidin-4-yl)-3H-pyrrolo[2,3-c]isoquinoline], the IC50 is reported as at most 10 nM. With `CN1CCC(c2cc3c(ncc4ccc(-c5cnn(C)c5)cc43)[nH]2)CC1` [Compound 40, 8-(1-methyl-1H-pyrazol-4-yl)-2-(1-methylpiperidin-4-yl)-3H-pyrrolo[2,3-c]isoquinoline] the IC50 was at most 10 nM. Work on `Cc1c(C2CCNCC2)[nH]c2ncc3ccc(-c4cnn(C)c4)cc3c12` [Compound 41, 1-methyl-8-(1-methyl-1H-pyrazol-4-yl)-2-(piperidin-4-yl)-3H-pyrrolo[2,3-c]isoquinoline] yielded an IC50 of at most 10 nM. In the case of `Cc1c(C2CCN(C)CC2)[nH]c2ncc3ccc(-c4cnn(C)c4)cc3c12` [Compound 42, 1-methyl-8-(1-methyl-1H-pyrazol-4-yl)-2-(1-methylpiperidin-4-yl)-3H-pyrrolo[2,3-c]isoquinoline], the IC50 is reported as at most 10 nM. `CN1CCN(c2nccc3c2cnc2[nH]cc(-c4ccncc4)c23)CC1` [Compound 43, 6-(4-methylpiperazin-1-yl)-1-(pyridin-4-yl)-3H-pyrrolo[2,3-c][2, 7]naphthyridine] was tested, and the IC50 was 10 to 100 nM. In the case of `CN1CCC(c2nccc3c2cnc2[nH]cc(-c4ccncc4)c23)CC1` [Compound 44, 6-(1-methylpiperidin-4-yl)-1-(pyridin-4-yl)-3H-pyrrolo[2,3-c][2, 7]naphthyridine], the IC50 is reported as 100 to 1000 nM. `Cn1cc(-c2ccc3cnc4c(c3c2)c([C@H]2CC[C@@H](C(=O)O)CC2)cn4C)cn1` [Compound 46, 4-(3-methyl-8-(1-methyl-1H-pyrazol-4-yl)-3H-pyrrolo[2,3-c]isoquinolin-1-yl)cyclohexane-1-carboxylic acid] was tested, and the IC50 was 10 to 100 nM. Molecule `Cn1cc(-c2ccc3cnc4c(c3c2)c([C@H]2CC[C@H](C(=O)O)CC2)cn4C)cn1` [Compound 47, 4-(3-methyl-8-(1-methyl-1H-pyrazol-4-yl)-3H-pyrrolo[2,3-c]isoquinolin-1-yl)cyclohexane-1-carboxylic acid] has an IC50 of at most 10 nM.

Same assay, conditions: Compounds of Formula (II); DYRK1A 1 nM, ATP 20 μM, Ser/Thr 18 peptide 2 μM, 90 minutes; read-out: DYRK1 IC50
With `CN1CCC(c2cc3c(-c4cc5scnc5cn4)ccnc3[nH]2)CC1` [Compound 4] the IC50 was 100 to 1000 nM. Work on `CN1CCC(c2nc3c(-c4cn(C)c5cnccc45)ccnc3[nH]2)CC1` [Compound 5] yielded an IC50 of 10 to 100 nM.

Same assay, conditions: Compounds of Formula (III); DYRK1A 1 nM, ATP 20 μM, Ser/Thr 18 peptide 2 μM, 90 minutes; read-out: DYRK1 IC50
Work on `CN1CCC(C(=O)Nc2ncc(-c3ccc4ncoc4c3)s2)CC1` [Compound 1] yielded an IC50 of 50 to 200 nM. `CN1CCC(C(=O)Nc2ncc(-c3ccc4sncc4c3)s2)CC1` [Compound 5] was tested, and the IC50 was 200 to 1000 nM. Work on `Cn1ncc2ccc(-c3cnc(C#CC4CCNCC4)s3)cc21` [Compound 7] yielded an IC50 of 50 to 200 nM. `CN1CCC(C#Cc2ncc(-c3ccc4cnn(C)c4c3)s2)CC1` [Compound 8] was tested, and the IC50 was 50 to 200 nM.

Same assay, conditions: Compounds of Formula (IV); DYRK1A 1 nM, ATP 20 μM, Ser/Thr 18 peptide 2 μM, 90 minutes; read-out: DYRK1 IC50
`O=c1oc2cc3cnccc3cc2n1CCc1nc2ccccc2[nH]1` [Compound 4] was tested, and the IC50 was 1000 to 5000 nM. Molecule `Cn1ncc2cc3[nH]c(=O)n(-c4cccc(O)c4)c3cc21` [Compound 5] has an IC50 of 500 to 1000 nM. For `CC(=O)N1CCc2c(cnc3[nH]cc(-c4ccncc4)c23)C1` [Compound 7], the IC50 was 500 to 1000 nM. `CC(=O)N1CCc2c(cnc3[nH]cc(-c4cccnc4)c23)C1` [Compound 8] gave an IC50 of 1000 to 5000 nM. `CC(=O)N1CCc2c(cnc3[nH]cc(-c4cccc(Cl)c4)c23)C1` [Compound 10] showed an IC50 of 1000 to 5000 nM. `O=c1[nH]c2cc3c(cc2o1)[nH]c(=O)n3-c1cccc(O)c1` [Compound 11] gave an IC50 of 1000 to 5000 nM. Work on `COc1cc(-c2ccc3c4c([nH]c(=O)c3c2)CN(C)CC4)ccc1F` [Compound 12] yielded an IC50 of 1000 to 5000 nM. `CN1CCc2c([nH]c(=O)c3cc(-c4ccnc5c4CCO5)ccc23)C1` [Compound 13] was tested, and the IC50 was 1000 to 5000 nM.

From patent US20250066349A1 (Prothena Biosciences Limited, priority 2021, published 2025)
